Test system: HCT-116
Assay: Cytotoxicity against human HCT116 cells after 72 hrs by MTS/PMS bioreduction assay
Type: functional, cell-based
Settings: HCT-116, 72 h

| Structure (SMILES) | IC50 [µM] |
| --- | --- |
| CN[C@@H]1CC[C@]2(C)[C@H]3CC[C@]4(C)[C@@H]([C@H](C)CC5NCCC5C(C)C)CC[C@H]4C3=CC[C@H]2[C@H]1OC(C)=O (some centres undefined) | 1.4 |
| CC(C)=C1CCN2[C@@H]1C[C@@H](C)[C@H]1[C@@H]2C[C@H]2C3=CC[C@H]4C[C@H](N(C)C)CC[C@]4(C)[C@H]3CC[C@]12C [PLAKINAMINE I] | 10.6 |
| CC(C)C1CCN(C)C1C[C@@H](C)[C@H]1CC[C@H]2C3=CC[C@H]4[C@H](N)C=CC[C@]4(C)[C@H]3CC[C@]12C (some centres undefined) [PLAKINAMINE J] | 6.1 |
| CN[C@@H]1CC[C@]2(C)[C@H]3CC[C@]4(C)[C@@H]([C@H](C)CC5NCCC5=C(C)C)CC[C@H]4C3=CC[C@H]2[C@H]1OC(C)=O (some centres undefined) [PLAKINAMINE K] | 1.4 |

Source: ChEMBL document CHEMBL1147257, “New cytotoxic steroidal alkaloids from the Philippine sponge Corticium niger” (J Nat Prod, 2003)
